Non-standard residues stand in square brackets, D forms with d. Residues, ends and D or L forms follow the SMILES beside them. *: point of attachment. Hyp = O=C(O)[C@@H]1C[C@@H](O)CN1; NH(CH2)3NH2 = NCCCN*; Bn = c1ccc(C*)cc1
Columns and labels:
[1] = target: T1, MC1-R (B-16 mouse melanoma cells) (Mus musculus, UniProt Q01727); assay: Competitive inhibition binding assay, 125I-NDP-α-MSH, MC1-R; settings: for Inhibition at 1 μM MC1-R: 1 μM compound, inhibition of 125I-NDP-α-MSH binding, mean of triplicates, results less than 0% reported as 0%
T1 construct: B-16 mouse melanoma cells (containing MC1-R); endogenous in cells; host or cells: B-16 mouse melanoma cells
T1 sequence (Q01727 whole entry): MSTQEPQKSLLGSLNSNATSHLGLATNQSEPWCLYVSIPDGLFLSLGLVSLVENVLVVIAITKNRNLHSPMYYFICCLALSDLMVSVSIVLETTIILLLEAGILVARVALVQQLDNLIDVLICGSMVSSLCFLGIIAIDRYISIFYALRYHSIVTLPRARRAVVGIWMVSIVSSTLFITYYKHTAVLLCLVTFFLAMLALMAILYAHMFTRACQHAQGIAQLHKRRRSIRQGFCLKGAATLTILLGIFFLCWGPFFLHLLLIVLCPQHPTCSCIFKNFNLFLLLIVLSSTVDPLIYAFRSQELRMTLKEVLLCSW
How it was run: (§1)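 Membranes from hMC3-R, hMC4-R or hMC5-R cells, or B-16 mouse melanoma cells (MC1-R), were incubated 90 min at room temperature with 0.4 nM 125I-NDP-α-MSH in HEPES pH 7.2 with Mg2+/Ca2+/K+, and test compound generally at 1 μM. Filter-bound radioactivity was gamma counted. Specific binding was defined with 1 μM α-MSH; triplicate means.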

MC3-R = MC3-R (Homo sapiens, UniProt P41968); assay: Competitive inhibition binding assay, 125I-NDP-α-MSH, MC3-R; design: expressed in transfected cells; settings: for Inhibition at 1 μM MC3-R: 1 μM compound, inhibition of 125I-NDP-α-MSH binding, mean of triplicates, results less than 0% reported as 0%
Sequence of MC3-R (P41968 whole entry): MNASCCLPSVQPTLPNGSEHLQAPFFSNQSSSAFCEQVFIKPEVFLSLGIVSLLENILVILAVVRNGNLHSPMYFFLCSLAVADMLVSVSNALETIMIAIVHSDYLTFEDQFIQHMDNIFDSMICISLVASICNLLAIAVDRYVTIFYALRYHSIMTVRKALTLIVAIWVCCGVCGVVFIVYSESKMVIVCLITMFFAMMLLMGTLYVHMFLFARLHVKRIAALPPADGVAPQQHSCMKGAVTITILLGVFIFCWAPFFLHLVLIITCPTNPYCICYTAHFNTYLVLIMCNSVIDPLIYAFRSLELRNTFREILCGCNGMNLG
How it was run: as §1

MC4-R = MC4-R (Homo sapiens, UniProt P32245); assay: Competitive inhibition binding assay, 125I-NDP-α-MSH, MC4-R; design: expressed in transfected cells; settings: for Inhibition at 1 μM MC4-R: 1 μM compound, inhibition of 125I-NDP-α-MSH binding, mean of triplicates, results less than 0% reported as 0%
Sequence of MC4-R (P32245 whole entry): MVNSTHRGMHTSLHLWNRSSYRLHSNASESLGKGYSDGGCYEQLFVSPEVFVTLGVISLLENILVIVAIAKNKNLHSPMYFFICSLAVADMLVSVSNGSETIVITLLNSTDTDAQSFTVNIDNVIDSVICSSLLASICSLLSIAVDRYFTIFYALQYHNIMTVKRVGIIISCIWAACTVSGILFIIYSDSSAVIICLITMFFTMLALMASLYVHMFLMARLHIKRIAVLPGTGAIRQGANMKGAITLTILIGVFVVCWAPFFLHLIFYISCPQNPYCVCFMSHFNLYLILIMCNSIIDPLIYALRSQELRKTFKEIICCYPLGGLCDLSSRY
How it was run: as §1

MC5-R = MC5-R (Homo sapiens, UniProt P33032); assay: Competitive inhibition binding assay, 125I-NDP-α-MSH, MC5-R; design: expressed in transfected cells; settings: for Inhibition at 1 μM MC5-R: 1 μM compound, inhibition of 125I-NDP-α-MSH binding, mean of triplicates, results less than 0% reported as 0%
Sequence of MC5-R (P33032 whole entry): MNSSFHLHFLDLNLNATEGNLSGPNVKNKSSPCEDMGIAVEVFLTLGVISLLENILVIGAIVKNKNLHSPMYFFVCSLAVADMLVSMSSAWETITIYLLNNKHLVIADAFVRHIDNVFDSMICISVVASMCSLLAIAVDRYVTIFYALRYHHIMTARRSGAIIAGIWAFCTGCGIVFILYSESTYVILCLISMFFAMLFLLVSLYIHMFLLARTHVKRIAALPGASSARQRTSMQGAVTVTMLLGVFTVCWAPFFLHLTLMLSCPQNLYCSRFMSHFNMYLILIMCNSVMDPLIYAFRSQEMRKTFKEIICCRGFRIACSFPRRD
How it was run: as §1

SMILES: NCCCC[C@H]1C(=O)N2C(CC[C@@H]2COc2ccc3c(c2)CCCC3)N1C(=O)[C@@H](Cc1ccc(Cl)cc1)NC(=O)[C@@H]1Cc2ccccc2CN1 (stereo partly drawn) [Example 108]
- Inhibition at 1 μM MC1-R [1]: 96%
- Inhibition at 1 μM MC3-R (MC3-R): 19%
- Inhibition at 1 μM MC4-R (MC4-R): 94%
- Inhibition at 1 μM MC5-R (MC5-R): 66%

SMILES: NCCCC[C@H]1C(=O)N2C(CC[C@@H]2COc2ccc3c(c2)CCCC3)N1C(=O)[C@@H](Cc1ccc(Cl)cc1)NC(=O)[C@@H](N)COCc1ccccc1 (stereo partly drawn) [Example 109]
- Inhibition at 1 μM MC1-R [1]: 93%
- Inhibition at 1 μM MC3-R (MC3-R): 4%
- Inhibition at 1 μM MC4-R (MC4-R): 78%
- Inhibition at 1 μM MC5-R (MC5-R): 56%

SMILES: NCCCCCCC(=O)N[C@@H](COCc1ccccc1)C(=O)N[C@H](Cc1ccc(Cl)cc1)C(=O)N1C2CC[C@H](COc3ccc4c(c3)CCCC4)N2C(=O)[C@@H]1CCCCN (stereo partly drawn) [Example 110]
- Inhibition at 1 μM MC1-R [1]: 97%
- Inhibition at 1 μM MC3-R (MC3-R): 59%
- Inhibition at 1 μM MC4-R (MC4-R): 96%
- Inhibition at 1 μM MC5-R (MC5-R): 84%

SMILES: N=C(N)NCCC[C@H]1C(=O)N(CCc2ccc3ccccc3c2)CCN1C(=O)[C@H](N)Cc1ccccc1Cl [Example 122]
- Inhibition at 1 μM MC1-R [1]: 3%
- Inhibition at 1 μM MC3-R (MC3-R): 2%
- Inhibition at 1 μM MC4-R (MC4-R): 69%
- Inhibition at 1 μM MC5-R (MC5-R): 5%

SMILES: N=C(N)NCCC[C@H]1C(=O)N(CCc2ccc3ccccc3c2)CCN1C(=O)[C@H](N)Cc1ccc(Cl)cc1 [Example 123]
- Inhibition at 1 μM MC1-R [1]: 34%
- Inhibition at 1 μM MC3-R (MC3-R): 38%
- Inhibition at 1 μM MC4-R (MC4-R): 87%
- Inhibition at 1 μM MC5-R (MC5-R): 29%

SMILES: N=C(N)NCCC[C@H]1C(=O)N(CCc2c[nH]c3ccccc23)CCN1C(=O)[C@H](N)Cc1ccc(Cl)cc1Cl [Example 124]
- Inhibition at 1 μM MC1-R [1]: 7%
- Inhibition at 1 μM MC3-R (MC3-R): 57%
- Inhibition at 1 μM MC4-R (MC4-R): 96%
- Inhibition at 1 μM MC5-R (MC5-R): 35%

SMILES: N=C(N)NCCC[C@H]1C(=O)N(CCc2c[nH]c3ccccc23)CCN1C(=O)[C@H](N)Cc1ccc(Cl)cc1 [Example 125]
- Inhibition at 1 μM MC1-R [1]: 10%
- Inhibition at 1 μM MC3-R (MC3-R): 28%
- Inhibition at 1 μM MC4-R (MC4-R): 68%
- Inhibition at 1 μM MC5-R (MC5-R): 43%

SMILES: Cc1ccc(CCN2CCN(C(=O)[C@H](N)Cc3ccc(Cl)cc3Cl)[C@@H](CCCNC(=N)N)C2=O)cc1 [Example 126]
- Inhibition at 1 μM MC1-R [1]: 11%
- Inhibition at 1 μM MC3-R (MC3-R): 42%
- Inhibition at 1 μM MC4-R (MC4-R): 78%
- Inhibition at 1 μM MC5-R (MC5-R): 34%

SMILES: Cc1ccc(CCN2CCN(C(=O)[C@H](N)Cc3ccc(Cl)cc3)[C@@H](CCCNC(=N)N)C2=O)cc1 [Example 127]
- Inhibition at 1 μM MC1-R [1]: 9%
- Inhibition at 1 μM MC3-R (MC3-R): 9%
- Inhibition at 1 μM MC4-R (MC4-R): 49%
- Inhibition at 1 μM MC5-R (MC5-R): 17%

SMILES: N=C(N)c1ccc(C[C@H]2C(=O)N(CCc3ccc4ccccc4c3)CCN2C(=O)[C@H](N)Cc2ccc(Cl)cc2Cl)cc1 [Example 128]
- Inhibition at 1 μM MC1-R [1]: 5%
- Inhibition at 1 μM MC3-R (MC3-R): 0%
- Inhibition at 1 μM MC4-R (MC4-R): 31%
- Inhibition at 1 μM MC5-R (MC5-R): 21%

SMILES: NCCC[C@H]1CN(CCc2ccc3ccccc3c2)CCN1C(=O)[C@H](N)Cc1ccc(Cl)cc1Cl [Example 130]
- Inhibition at 1 μM MC1-R [1]: 0%
- Inhibition at 1 μM MC3-R (MC3-R): 33%
- Inhibition at 1 μM MC4-R (MC4-R): 81%
- Inhibition at 1 μM MC5-R (MC5-R): 39%

SMILES: C[C@H](N)C(=O)N[C@@H](Cc1cnc[nH]1)C(=O)N[C@H](Cc1ccccc1)C(=O)N1C[C@H](OCc2ccccc2)C[C@H]1C(=O)NCCCN [Example 135] (H-AH[dF][Hyp](Bn)-{NH(CH2)3NH2})
- Inhibition at 1 μM MC1-R [1]: 93%
- Inhibition at 1 μM MC3-R (MC3-R): 0%
- Inhibition at 1 μM MC4-R (MC4-R): 0%
- Inhibition at 1 μM MC5-R (MC5-R): 0%

SMILES: [2H]N[C@@H](Cc1ccccc1)C(=O)N1C[C@H](OCc2ccccc2)C[C@H]1C(=O)NCCCN [Example 137]
- inhibition at 1 µM [1]: 23%
- inhibition at 1 µM (MC3-R): 0%
- inhibition at 1 µM (MC4-R): 0%
- inhibition at 1 µM (MC5-R): 0%

SMILES: CCCCCCC(=O)N[C@@H](COCc1ccccc1)C(=O)N[C@H](Cc1ccc2ccccc2c1)C(=O)N1C[C@@H](Oc2ccc3ccccc3c2)C[C@H]1C(=O)NCCCN [Example 138]
- Inhibition at 1 μM MC1-R [1]: 39%
- Inhibition at 1 μM MC3-R (MC3-R): 0%
- Inhibition at 1 μM MC4-R (MC4-R): 0%
- Inhibition at 1 μM MC5-R (MC5-R): 0%

SMILES: CC(=O)NC(Cc1cnc[nH]1)C(=O)NC(Cc1ccccc1)C(=O)N1CC(OCc2ccccc2)CC1C(=O)NCCCN (stereo not drawn) [Example 139]
- Inhibition at 1 μM MC1-R [1]: 85%
- Inhibition at 1 μM MC3-R (MC3-R): 46%
- Inhibition at 1 μM MC4-R (MC4-R): 43%
- Inhibition at 1 μM MC5-R (MC5-R): 34%

SMILES: NCCCNC(=O)[C@@H]1C[C@@H](OCc2ccccc2)CN1C(=O)[C@@H](Cc1ccccc1)NC(=O)[C@H](Cc1cnc[nH]1)NC(=O)c1ccccc1 [Example 140]
- Inhibition at 1 μM MC1-R [1]: 78%
- Inhibition at 1 μM MC3-R (MC3-R): 3%
- Inhibition at 1 μM MC4-R (MC4-R): 1%
- Inhibition at 1 μM MC5-R (MC5-R): 10%

SMILES: NCCCNC(=O)[C@@H]1C[C@@H](OCc2ccccc2)CN1C(=O)[C@@H](Cc1ccccc1)NC(=O)[C@H](Cc1cnc[nH]1)NC(=O)Cc1ccc2ccccc2c1 [Example 141]
- Inhibition at 1 μM MC1-R [1]: 84%
- Inhibition at 1 μM MC3-R (MC3-R): 4%
- Inhibition at 1 μM MC4-R (MC4-R): 0%
- Inhibition at 1 μM MC5-R (MC5-R): 19%

SMILES: NCCCNC(=O)[C@@H]1C[C@@H](OCc2ccccc2)CN1C(=O)[C@@H](Cc1ccccc1)NC(=O)[C@H](Cc1cnc[nH]1)NC(=O)CC1CCCCC1 [Example 142]
- Inhibition at 1 μM MC1-R [1]: 85%
- Inhibition at 1 μM MC3-R (MC3-R): 3%
- Inhibition at 1 μM MC4-R (MC4-R): 0%
- Inhibition at 1 μM MC5-R (MC5-R): 12%

SMILES: CCCC(CCC)C(=O)N[C@@H](Cc1cnc[nH]1)C(=O)N[C@H](Cc1ccccc1)C(=O)N1C[C@H](OCc2ccccc2)C[C@H]1C(=O)NCCCN [Example 143]
- Inhibition at 1 μM MC1-R [1]: 73%
- Inhibition at 1 μM MC3-R (MC3-R): 0%
- Inhibition at 1 μM MC4-R (MC4-R): 0%
- Inhibition at 1 μM MC5-R (MC5-R): 7%

SMILES: CCCCCCC(=O)N[C@@H](Cc1cnc[nH]1)C(=O)N[C@H](Cc1ccccc1)C(=O)N1C[C@H](OCc2ccccc2)C[C@H]1C(=O)NCCCNC(=N)N [Example 154]
- Inhibition at 1 μM MC1-R [1]: 92%
- Inhibition at 1 μM MC3-R (MC3-R): 7%
- Inhibition at 1 μM MC4-R (MC4-R): 1%
- Inhibition at 1 μM MC5-R (MC5-R): 1%

SMILES: CCCCCCC(=O)N[C@@H](Cc1cnc[nH]1)C(=O)N[C@H](Cc1ccccc1)C(=O)N1C[C@H](OCc2ccccc2)C[C@H]1C(=O)NCCCN [Example 155]
- Inhibition at 1 μM MC1-R [1]: 71%
- Inhibition at 1 μM MC3-R (MC3-R): 5%
- Inhibition at 1 μM MC4-R (MC4-R): 0%
- Inhibition at 1 μM MC5-R (MC5-R): 7%

SMILES: NCCCNC(=O)[C@@H]1C[C@@H](OCc2ccccc2)CN1C(=O)[C@@H](Cc1ccccc1)NC(=O)[C@H](N)Cc1ccc2ccccc2c1 [Example 158]
- Inhibition at 1 μM MC1-R [1]: 0%
- Inhibition at 1 μM MC3-R (MC3-R): 5%
- Inhibition at 1 μM MC4-R (MC4-R): 0%
- Inhibition at 1 μM MC5-R (MC5-R): 0%

SMILES: NCCCNC(=O)C1CC(OCc2ccccc2)CN1C(=O)C(Cc1ccccc1)NC(=O)C1NCCc2ccccc21 (stereo not drawn) [Example 159]
- Inhibition at 1 μM MC1-R [1]: 0%
- Inhibition at 1 μM MC3-R (MC3-R): 14%
- Inhibition at 1 μM MC4-R (MC4-R): 1%
- Inhibition at 1 μM MC5-R (MC5-R): 0%

SMILES: NCCCNC(=O)C1CC(OCc2ccccc2)CN1C(=O)C(Cc1ccccc1)NC(=O)C1NCCc2ccccc21 (stereo not drawn) [Example 160]
- Inhibition at 1 μM MC1-R [1]: 1%
- Inhibition at 1 μM MC3-R (MC3-R): 36%
- Inhibition at 1 μM MC4-R (MC4-R): 5%
- Inhibition at 1 μM MC5-R (MC5-R): 0%

SMILES: NCCCNC(=O)[C@@H]1C[C@@H](OCc2ccccc2)CN1C(=O)[C@@H](Cc1ccccc1)NC(=O)C1(N)CCCC1 [Example 161]
- Inhibition at 1 μM MC1-R [1]: 3%
- Inhibition at 1 μM MC3-R (MC3-R): 23%
- Inhibition at 1 μM MC4-R (MC4-R): 10%
- Inhibition at 1 μM MC5-R (MC5-R): 0%

SMILES: NCCCNC(=O)[C@@H]1C[C@@H](OCc2ccccc2)CN1C(=O)[C@@H](Cc1ccccc1)NC(=O)C1(N)CCCCC1 [Example 162]
- Inhibition at 1 μM MC1-R [1]: 0%
- Inhibition at 1 μM MC3-R (MC3-R): 41%
- Inhibition at 1 μM MC4-R (MC4-R): 8%
- Inhibition at 1 μM MC5-R (MC5-R): 0%

SMILES: NCCCNC(=O)[C@@H]1C[C@@H](OCc2ccccc2)CN1C(=O)[C@@H](Cc1ccccc1)NC(=O)C1(N)Cc2ccccc2C1 [Example 163]
- Inhibition at 1 μM MC1-R [1]: 0%
- Inhibition at 1 μM MC3-R (MC3-R): 16%
- Inhibition at 1 μM MC4-R (MC4-R): 15%
- Inhibition at 1 μM MC5-R (MC5-R): 0%

From patent US7807678B2, “Peptidomimetics of biologically active metallopeptides” (Palatin Technologies, Inc., priority 2001, dated 2010)
